Experimental findings from patent US6569633B1, “Modulation of the sulfonylurea receptor and calcium in adipocytes for treatment of obesity/diabetes” (Artecel Science, Inc., priority 1998, dated 2003) are described below.

What all share (assay type): cell-based
For data set [1], the system named is human adipocytes. As to the kind of experiment: Triglyceride accumulation in human adipocytes. To be noted: for triglyceride content: control 30.3±0.3. Here is the method:
Human subcutaneous abdominal adipocytes were isolated from healthy patients undergoing cosmetic liposuction using methodology we have previously described. Briefly, the tissue was washed several times with Hank's Balanced Salt Solution, minced into small fragments and digested with type I collagenase (1 mg/mL) in a shaking water bath at 37° C. for 30-40 minutes. Cells were then filtered through a sterile nylon filter (500 μm mesh) and cultured in Dulbecco's Modified Eagle's Medium (DMEM) supplemented with 1% fetal bovine serum, 1% bovine serum albumin, 100 U/mL penicillin, 100 μg/mL streptomycin and 50 μg/mL gentamicin. Cells were subsequently cultured in suspension in sterile polypropylene flasks in a humidified 37° C./5% CO2 incubator. After one day, suspended (floating) adipocytes were transferred to fresh medium and maintained as a thin layer at the top of the culture medium to ensure access to nutrients. The cells were maintained for another 24 hours in this medium and then changed to fresh medium with the addition of SUR agonists (such as glibenclamide) for up to 48 hours with the compounds to be tested. Medium was changed every 24 hours, and cell viability was verified with trypan blue exclusion at the end of representative experiments.
Stimulation of fatty acid synthase and concomitant inhibition of lipolysis results in increased lipid accumulation in human adipocytes. Adipocytes were treated as described above, harvested, and their triglyceride content was analyzed and normalized for protein content. […] Thus, these calcium-stimulated biochemical activities will contribute to the development of adipocyte hypertrophy and potentially obesity.

Data set [2] concerns FAS activity in human adipocytes. As to the kind of experiment: Fatty acid synthase (FAS) activity in human adipocytes.
The subject of data set [3] is human adipocytes. Nature of the data set: Lipolysis (glycerol release into the culture medium) in human adipocytes. How it is done: FIG. 4. The anti-lipolytic effect of glibenclamide in human adipocytes. Activation of lipolysis in adipocytes is typically measured by release of glycerol into the media. Human adipocytes were treated with 10 μM glibenclamide alone, 10 μM glibenclamide plus 10 μM diazoxide or 10 μM glibenclamide plus 30 μM nitrendipine for 48 hr. Glycerol release was determined as described (19). *p<0.01 vs. Control.
Human adipocytes were examined for changes in lipolysis regulation by measurement of glycerol release into the media. Glycerol was measured by using a standard method (19), although other techniques for measuring glycerol would be equally useful.
Human subcutaneous abdominal adipose tissue was obtained from patients undergoing elective abdominal cosmetic surgery, although other types of adipose tissue, such as mesenteric, retroperitoneal, perirenal, or omental may be useful in identifying these compounds. Preadipocytes are isolated by collagenase treatment of the tissue and cultured adipocytes prepared as described (patent filed; Jan. 29, 1999; Ser. No. 09/240,029). Agents that regulate calcium flux in adipocytes as noted above can mediate lipolysis. Human adipocytes may be cultured in multi-well plates with different treatments between 1 hour or 24 hours as indicated, and glycerol release into the culture medium was determined as an indicator for lipolysis using a one-step enzymatic fluorometric method. The media collected from 1 hr treatments were used directly for glycerol measurements. For 24 hr treatments, media were removed, and cells were washed with Hank's Balanced Salt Solution and incubated in fresh medium for a further 10-60 min. This media were then used for glycerol measurements for 24 hr treatments.
We next investigated the role of adipocyte SUR1 on lipolysis. Lipolysis was measured as follows. Human adipocytes were treated as described below and glycerol release into the culture medium was determined as an indicator for lipolysis using a one step enzymatic fluorometric method (19). After treatment medium was obtained, HClO4 was added for deproteinization.
Agents that regulate calcium flux in adipocytes as noted above can mediate lipolysis. Human adipocytes (1 mL cells/well) were incubated in 24-well plates with different treatments for either 1 hour or 24 hours as indicated, and glycerol release into the culture medium was determined as an indicator for lipolysis using a one-step enzymatic fluorometric method. The media collected from 1 hr treatments were used directly for glycerol measurements. For 24 hr treatments, media were removed, and cells were washed with Hank's Balanced Salt Solution and incubated in fresh medium for a further 30 min. This media were then used for glycerol measurements for 24 hr treatments. After medium was collected, HClO4 was added to give a final concentration of 3% for deproteinization. The sample was centrifuged at 9000×g for 20 min. The supernatant was then collected and neutralized with 10N NaOH. Samples were stored at −80° C. prior to glycerol assay. Cells were collected, homogenized and stored at −80° C. for subsequent total protein correction by a modified Bradford method using Coomassie Blue dye (PIERCE, Rockford, Ill.).

In data set [1] (two-hour exposure to 10 nM A23187, ensuing 48 hours, control 31.4±2.4), `CNc1ccc2oc(C[C@H]3O[C@@]4(CC[C@H]3C)O[C@H]([C@H](C)C(=O)c3ccc[nH]3)[C@H](C)C[C@H]4C)nc2c1C(=O)O` [A23187] registered a triglyceride accumulation of 52±7 μg/mg protein.
`NC(=O)CC[C@@H]1NC(=O)[C@H](Cc2ccccc2)NC(=O)[C@H](Cc2ccc(O)cc2)NC(=O)[C@@H](N)CSSC[C@@H](C(=O)N2CCC[C@H]2C(=O)N[C@@H](CCCN=C(N)N)C(=O)NCC(N)=O)NC(=O)[C@H](CC(N)=O)NC1=O` [AVP, arginine vasopressin]: the “fatty acid synthase activity” value in data set [2] (1 nM AVP) is 6.9±0.1 nmol/min/mg protein. In addition, the “inhibition of forskolin-induced lipolysis” value in data set [3] (1 nM AVP, short-term) is 56±6.6%.
As to `[Cl-].[K+]` [KCl], the triglyceride content in data set [1] (40 mM KCl) is 43.5±0.5 μg/mg protein. Moreover, the “fatty acid synthase activity” value in data set [2] (40 mM KCl for two hours, harvested approximately 72 hours later, control 3.93±0.11) came out at 6.24±0.2 nmol NADPH/min/mg protein; in data set [2] (40 mM KCl, control 2.87 (diazoxide experiment)), 6.20±0.57 nmol/min/mg protein. Moreover, the “lipolysis, % of control levels” value in data set [3] (10 mM KCl, twenty-four hour exposure) amounted to 75.9±4.1%. The “inhibition of forskolin-induced lipolysis” value is given as 42±5% in data set [3] (25 mM KCl, short-term (one-hour)) and 50±1.7% in data set [3] (40 mM KCl, short-term (one-hour)).
In data set [3] (1 μM forskolin), `C=C[C@@]1(C)CC(=O)[C@]2(O)[C@@]3(C)[C@@H](O)CCC(C)(C)[C@@H]3[C@H](O)[C@H](OC(C)=O)[C@@]2(C)O1` [forskolin] returned an increase in lipolysis of 48%.
On to `CCOC(=O)C1=C(C)NC(C)=C(C(=O)OC)C1c1cccc([N+](=O)[O-])c1` (stereo not shown) [nitrendipine], for which, in data set [1] (1 nM insulin plus nitrendipine), the “reduction in insulin-stimulated triglyceride accumulation” value is listed as 40%. The “fatty acid synthase activity” value in data set [2] (1 nM insulin plus 30 μM nitrendipine) is 4.12 ± 0.03 nmol/min/mg.
Take insulin: the “fatty acid synthase activity” value in data set [2] (1 nM insulin, control 3.95±0.11) amounted to 14.56±0.22 nmol/min/mg protein.

B1: agouti: recombinant agouti protein, purified agouti gene product from a baculovirus expression system (protein, UniProt Q03288 23-131, looked up)
Agouti-signaling protein: HLALEETLGDDRSLRSNSSMNSLDFSSVSIVALNKKSKKISRKEAEKRKRSSKKKASMKKVARPPPPSPCVATRDSCKPPAPACCDPCASCQCRFFGSACTCRVLNPNC
In the case of B1, the “decrease in basal lipolysis” value in data set [3] (100 nM recombinant agouti, 24 hr) amounted to 60%. In data set [3] (100 nM recombinant agouti, short-term (1 hr)), the “effect on basal lipolysis” value is recorded as “no effect”. For the same molecule, in data set [3] (1 μM forskolin plus 100 nM agouti), the “forskolin-induced increase in lipolysis” value is “reversed”. In data set [3] (short-term agouti treatment), the ACTH-induced lipolysis entry was “totally inhibited”.

B2: parathyroid hormone (peptide, UniProt P01270 32-115, looked up)
Parathyroid hormone: SVSEIQLMHNLGKHLNSMERVEWLRKKLQDVHNFVALGAPLAPRDAGSQRPRKKEDNVLVESHEKSLGEADKADVNVLTKAKSQ
modifications: Parathyroid hormone
notes: stimulator of receptor-mediated Ca2+ influx
In data set [1] (4.8 nM PTH), B2 displayed a triglyceride content of 54.5±0.6 μg/mg protein. The “fatty acid synthase activity” value in data set [2] (4.8 nM PTH) was found to be 6.9±0.1 nmol/min/mg protein.
